{
  "source": "ChEMBL document CHEMBL4342484",
  "about": "“Structure-Activity Relationship for the Oxadiazole Class of Antibacterials” (ACS Med Chem Lett, 2020)",
  "key": {"Staphylococcus aureus [1]": {"tested_on": "Staphylococcus aureus", "assay": "Antibacterial activity against Staphylococcus aureus ATCC 29213 by broth microdilution method", "type": "functional"}, "[2]": {"assay": "Plasma protein binding in human at […] incubated for 2 hrs by UPLC analysis", "type": "ADME, cell-free", "conditions": "read-out: PPB (converted)"}, "HepG2": {"tested_on": "HepG2", "assay": "Cytotoxicity against human HepG2 cells assessed as reduction in cell viability by XTT assay", "type": "cell-based"}, "[3]": {"assay": "Hemolytic activity in human RBC relative to control", "type": "ADME, cell-based, Erythrocyte", "conditions": "red blood cells (erythrocytes), read-out: Activity"}, "Staphylococcus aureus [4]": {"tested_on": "Staphylococcus aureus", "assay": "Antibacterial activity against Staphylococcus aureus ATCC 27660 by broth microdilution method", "type": "functional"}, "Staphylococcus aureus [5]": {"tested_on": "Staphylococcus aureus", "assay": "Antibacterial activity against Staphylococcus aureus N315 (NRS70) by broth microdilution method", "type": "functional"}, "Staphylococcus aureus [6]": {"tested_on": "Staphylococcus aureus", "assay": "Antibacterial activity against Staphylococcus aureus NRS100 (COL) by broth microdilution method", "type": "functional"}, "Staphylococcus aureus [7]": {"tested_on": "Staphylococcus aureus", "assay": "Antibacterial activity against Staphylococcus aureus NRS119 by broth microdilution method", "type": "functional"}, "Staphylococcus aureus [8]": {"tested_on": "Staphylococcus aureus", "assay": "Antibacterial activity against Staphylococcus aureus NRS120 by broth microdilution method", "type": "functional"}, "Staphylococcus aureus [9]": {"tested_on": "Staphylococcus aureus", "assay": "Antibacterial activity against vancomycin-resistant Staphylococcus aureus VRS1 clinical isolate by broth microdilution method", "type": "functional"}, "Staphylococcus aureus [10]": {"tested_on": "Staphylococcus aureus", "assay": "Antibacterial activity against vancomycin-resistant Staphylococcus aureus VRS2 clinical isolate by broth microdilution method", "type": "functional"}, "[11]": {"tested_on": "Staphylococcus epidermidis", "assay": "Antibacterial activity against Staphylococcus epidermidis ATCC 35547 by broth microdilution method", "type": "functional"}, "[12]": {"tested_on": "Staphylococcus haemolyticus", "assay": "Antibacterial activity against Staphylococcus haemolyticus ATCC 29970 by broth microdilution method", "type": "functional"}, "Bacillus cereus": {"tested_on": "Bacillus cereus", "assay": "Antibacterial activity against Bacillus cereus ATCC 13061 by broth microdilution method", "type": "functional"}, "Bacillus licheniformis": {"tested_on": "Bacillus licheniformis", "assay": "Antibacterial activity against Bacillus licheniformis ATCC 12759 by broth microdilution method", "type": "functional"}, "Enterococcus faecalis [13]": {"tested_on": "Enterococcus faecalis", "assay": "Antibacterial activity against Enterococcus faecalis ATCC 29212 by broth microdilution method", "type": "functional"}, "Enterococcus faecalis [14]": {"tested_on": "Enterococcus faecalis", "assay": "Antibacterial activity against vancomycin-susceptible Enterococcus faecalis 201 clinical isolate by broth microdilution method", "type": "functional"}, "Enterococcus faecalis [15]": {"tested_on": "Enterococcus faecalis", "assay": "Antibacterial activity against vancomycin-resistant Enterococcus faecalis 99 clinical isolate by broth microdilution method", "type": "functional"}, "Enterococcus faecium [16]": {"tested_on": "Enterococcus faecium", "assay": "Antibacterial activity against vancomycin-susceptible Enterococcus faecium 119-39A clinical isolate by broth microdilution method", "type": "functional"}, "Enterococcus faecium [17]": {"tested_on": "Enterococcus faecium", "assay": "Antibacterial activity against vancomycin-resistant Enterococcus faecium 106 clinical isolate by broth microdilution method", "type": "functional"}, "Enterococcus faecium [18]": {"tested_on": "Enterococcus faecium", "assay": "Antibacterial activity against Enterococcus faecium NCTC 7171 by broth microdilution method", "type": "functional"}, "[19]": {"assay": "AUC (0 to last) in ICR mouse at 20 mg/kg, iv measured for 24 hrs by UPLC analysis", "type": "ADME, organism-based", "conditions": "in vivo"}, "[20]": {"assay": "AUC (0 to infinity) in ICR mouse at 20 mg/kg, iv measured for 24 hrs by UPLC analysis", "type": "ADME, organism-based", "parameters": "dose 20 mg/kg, time infinity, route intravenous", "conditions": "in vivo"}, "[21]": {"assay": "Clearance in ICR mouse at 20 mg/kg, iv measured for 24 hrs by UPLC analysis", "type": "ADME, organism-based", "conditions": "in vivo"}, "[22]": {"assay": "Volume of distribution in ICR mouse at 20 mg/kg, iv measured for 24 hrs by UPLC analysis", "type": "ADME, organism-based", "conditions": "in vivo"}, "[23]": {"assay": "Distribution half life in ICR mouse at 20 mg/kg, iv measured for 24 hrs by UPLC analysis", "type": "ADME, organism-based", "conditions": "in vivo, read-out: alphat1/2 (converted)"}, "[24]": {"assay": "Terminal half life in ICR mouse at 20 mg/kg, iv measured for 24 hrs by UPLC analysis", "type": "ADME, organism-based", "conditions": "in vivo, read-out: beta t1/2 (converted)"}, "[25]": {"assay": "AUC (0 to last) in ICR mouse at 20 mg/kg, po administered as via gavage measured for 36 hrs by UPLC analysis", "type": "ADME, organism-based", "conditions": "in vivo"}, "[26]": {"assay": "AUC (0 to infinity) in ICR mouse at 20 mg/kg, po administered as via gavage measured for 36 hrs by UPLC analysis", "type": "ADME, organism-based", "parameters": "dose 20 mg/kg, route oral, time infinity", "conditions": "in vivo"}, "[27]": {"assay": "Cmax in ICR mouse at 20 mg/kg, po administered as via gavage measured for 36 hrs by UPLC analysis", "type": "ADME, organism-based", "parameters": "dose 20 mg/kg, route oral", "conditions": "in vivo"}, "[28]": {"assay": "Tmax in ICR mouse at 20 mg/kg, po administered as via gavage measured for 36 hrs by UPLC analysis", "type": "ADME, organism-based", "conditions": "in vivo"}, "[29]": {"assay": "Distribution half life in ICR mouse at 20 mg/kg, po administered as via gavage measured for 36 hrs by UPLC analysis", "type": "ADME, organism-based", "conditions": "in vivo, read-out: alphat1/2 (converted)"}, "[30]": {"assay": "Terminal half life in ICR mouse at 20 mg/kg, po administered as via gavage measured for 36 hrs by UPLC analysis", "type": "ADME, organism-based", "conditions": "in vivo, read-out: beta t1/2 (converted)"}, "[31]": {"assay": "Oral bioavailability in ICR mouse at 20 mg/kg administered as via gavage measured for 36 hrs by UPLC analysis", "type": "ADME, organism-based", "conditions": "in vivo"}, "Staphylococcus aureus [32]": {"tested_on": "Staphylococcus aureus", "assay": "Antibacterial activity against linezolid-sensitive Staphylococcus aureus NRS70 infected in mouse model of neutropenic thigh infection assessed as reduction in bacterial count at 40 mg/kg, po administered 1 hrs post infection and measured for 48 hrs", "type": "functional"}, "Staphylococcus aureus [33]": {"tested_on": "Staphylococcus aureus", "assay": "Antibacterial activity against linezolid-resistant Staphylococcus aureus NRS119 infected in mouse model of neutropenic thigh infection assessed as reduction in bacterial count at 40 mg/kg, po administered […]", "type": "functional"}, "[34]": {"assay": "Drug level in mouse thigh infected with linezolid-sensitive Staphylococcus aureus NRS70 at 40 mg/kg, po administered 1 hrs post infection and measured for 48 hrs", "type": "ADME, organism-based", "conditions": "read-out: Drug uptake"}, "[35]": {"assay": "Drug level in mouse thigh infected with linezolid-resistant Staphylococcus aureus NRS119 at 40 mg/kg, po administered 1 hrs post infection and measured for 48 hrs", "type": "ADME, organism-based", "conditions": "read-out: Drug uptake"}, "Staphylococcus aureus [36]": {"tested_on": "Staphylococcus aureus", "assay": "Antibacterial activity against Staphylococcus aureus ATCC 27660 infected in mouse model of peritonitis at 20 mg/kg, iv dosed at 30 mins and 7.5 hrs post infection and measured for 2 days"}},
  "note": "Active and inactive are the calls of the source. No cut-off for these calls is given here.",
  "data": [
    {"compound": "Fc1ccc(Oc2ccc(-c3noc(-c4ccc5[nH]ccc5c4)n3)cc2)cc1", "values": [
      {"measurement": "MIC", "setting": "Staphylococcus aureus [1]", "result": "1 to 2", "unit": "µg/mL"},
      {"measurement": "fraction unbound at 2 h", "setting": "[2]", "result": 0.012},
      {"measurement": "IC50", "setting": "HepG2", "result": 37, "unit": "µg/mL"},
      {"measurement": "hemolysis", "setting": "[3]", "result": "< 1", "unit": "%"},
      {"measurement": "MIC", "setting": "Staphylococcus aureus [4]", "result": "2 to 4", "unit": "µg/mL"},
      {"measurement": "MIC", "setting": "Staphylococcus aureus [5]", "result": 1, "unit": "µg/mL"},
      {"measurement": "MIC", "setting": "Staphylococcus aureus [6]", "result": 2, "unit": "µg/mL"},
      {"measurement": "MIC", "setting": "Staphylococcus aureus [7]", "result": "1 to 2", "unit": "µg/mL"},
      {"measurement": "MIC", "setting": "Staphylococcus aureus [8]", "result": 2, "unit": "µg/mL"},
      {"measurement": "MIC", "setting": "Staphylococcus aureus [9]", "result": 1, "unit": "µg/mL"},
      {"measurement": "MIC", "setting": "Staphylococcus aureus [10]", "result": 1, "unit": "µg/mL"},
      {"measurement": "MIC", "setting": "[11]", "result": 1, "unit": "µg/mL"},
      {"measurement": "MIC", "setting": "[12]", "result": 2, "unit": "µg/mL"},
      {"measurement": "MIC", "setting": "Bacillus cereus", "result": 4, "unit": "µg/mL"},
      {"measurement": "MIC", "setting": "Bacillus licheniformis", "result": 2, "unit": "µg/mL"},
      {"measurement": "MIC", "setting": "Enterococcus faecalis [13]", "result": 4, "unit": "µg/mL"},
      {"measurement": "MIC", "setting": "Enterococcus faecalis [14]", "result": 4, "unit": "µg/mL"},
      {"measurement": "MIC", "setting": "Enterococcus faecalis [15]", "result": 4, "unit": "µg/mL"},
      {"measurement": "MIC", "setting": "Enterococcus faecium [16]", "result": 1, "unit": "µg/mL"},
      {"measurement": "MIC", "setting": "Enterococcus faecium [17]", "result": 1, "unit": "µg/mL"},
      {"measurement": "MIC", "setting": "Enterococcus faecium [18]", "result": 1, "unit": "µg/mL"},
      {"measurement": "AUClast", "setting": "[19]", "result": 1790, "unit": "uM.min/ml"},
      {"measurement": "AUC", "setting": "[20]", "result": 2570, "unit": "uM.min/ml"},
      {"measurement": "clearance", "setting": "[21]", "result": 7.8, "unit": "mL/min/kg"},
      {"measurement": "Vd", "setting": "[22]", "result": 14.2, "unit": "L/kg"},
      {"measurement": "half-life", "setting": "[23]", "result": 0.4, "unit": "h"},
      {"measurement": "half-life", "setting": "[24]", "result": 21.1, "unit": "h"},
      {"measurement": "AUClast", "setting": "[25]", "result": 718, "unit": "uM.min/ml"},
      {"measurement": "AUC", "setting": "[26]", "result": 1040, "unit": "uM.min/ml"},
      {"measurement": "Cmax", "setting": "[27]", "result": 1000, "unit": "ng/mL"},
      {"measurement": "Tmax", "setting": "[28]", "result": 2.5, "unit": "h"},
      {"measurement": "half-life", "setting": "[29]", "result": 6.2, "unit": "h"},
      {"measurement": "half-life", "setting": "[30]", "result": 17, "unit": "h"},
      {"measurement": "bioavailability", "setting": "[31]", "result": 41, "unit": "%"},
      {"measurement": "Activity", "setting": "Staphylococcus aureus [32]", "result": 1.1, "unit": "log10CFU"},
      {"measurement": "Activity", "setting": "Staphylococcus aureus [33]", "result": 1.5, "unit": "log10CFU"},
      {"measurement": "concentration at 48 h", "setting": "[34]", "result": 5800, "unit": "ng/g"},
      {"measurement": "concentration at 48 h", "setting": "[35]", "result": 6400, "unit": "ng/g"},
      {"measurement": "Activity", "setting": "Staphylococcus aureus [36]", "result": "Active"}
    ]}
  ]
}
